Assay results taken from publication PMC8053501 (Diabetes, Metabolic Syndrome and Obesity: Targets and …, 2021).
Entries after “also recorded” stand apart in the source; their conditions may differ. Read-outs that look alike come from different tables or passages of the source.

Legend:
[1] = tested on: diabetes mellitus patients; assay: Acute kidney injury; type: in vivo, human; details: for Association with AKI, Unadjusted (95% CI) / Association with AKI, Adjusted (95% CI): metformin as reference; for Association with AKI, Adjusted (95% CI): multivariate; for Events During the 90 days (AKI): primary endpoint, first 90 days, patients above 55 years; for Total endpoint (AKI events): primary plus secondary endpoint; for Events at secondary end (AKI): secondary endpoint, after 90 days of hospital admission; for Total Percent (incidence rate of AKI at the end of the study): share of the 4966 total outcomes; for Association with AKI compared to control drug metformin, in words: multivariate analysis
[2] = for Cmax / Tmax / t1/2 / AUC / Tmax determined from the drug concentration in kidney and plasma (and liver): mouse; for Cmax / Tmax / t1/2 / AUC / Drug concentration, time course: oral gavage, 3mg/kg; for AUC: AUC for 24 hr; for Tmax determined from the drug concentration in kidney and plasma (and liver): tissue not separated; for Drug concentration, time course: normal mice
in vivo = details: male, ICR, mouse, po
[3] = Endpoint Diagnosis with 1047 Outcome
[4] = Secondary Diagnosis with 3919 Outcomes

## Cc1ccc([C@@H]2O[C@H](CO)[C@@H](O)[C@H](O)[C@H]2O)cc1Cc1ccc(-c2ccc(F)cc2)s1 [Canagliflozin, canagliflozin]
[1]; [3]
  Association with AKI, Unadjusted (95% CI): 0.85 (0.67–1.21)
  Association with AKI, Adjusted (95% CI): 1.06 (0.68–1.34)
[1]; [4]
  Association with AKI, Unadjusted (95% CI): 0.89 (0.61–1.25)
  Association with AKI, Adjusted (95% CI): 1.06 (0.91–1.42)
[1]
  Events During the 90 days (AKI): 66
  Total endpoint (AKI events): 267
  Events at secondary end (AKI): 201
  Total Percent (incidence rate of AKI at the end of the study): 5.38%
[2]; Kidney
  Cmax: 3765 ng/mL
  Tmax: 1 h
  t1/2: 2.4 h
  AUC: 12,100 ng/mL
[2]; Liver
  Cmax: 3217 ng/mL
  Tmax: 1 h
  t1/2: 2.8 h
  AUC: 10,100 ng/mL
[2]; Plasma
  Cmax: 542 ng/mL
  Tmax: 1 h
  t1/2: 2.1 h
  AUC: 1432 ng/mL
[2]
  Tmax determined from the drug concentration in kidney and plasma (and liver): 1 h
[2]; Kidney, 0h
  Drug concentration, time course: 0
[2]; Kidney, 3h
  Drug concentration, time course: 5000
[2]; Kidney, 6h
  Drug concentration, time course: 4300
[2]; Kidney, 9h
  Drug concentration, time course: 900
[2]; Kidney, 12h
  Drug concentration, time course: 300
[2]; Kidney, 15h
  Drug concentration, time course: 0
[2]; Kidney, 18h
  Drug concentration, time course: 0
[2]; Kidney, 21h
  Drug concentration, time course: 0
[2]; Kidney, 24h
  Drug concentration, time course: 0
[2]; Liver, 0h
  Drug concentration, time course: 0
[2]; Liver, 3h
  Drug concentration, time course: 4700
[2]; Liver, 6h
  Drug concentration, time course: 3900
[2]; Liver, 9h
  Drug concentration, time course: 600
[2]; Liver, 12h
  Drug concentration, time course: 100
[2]; Liver, 15h
  Drug concentration, time course: 0
[2]; Liver, 18h
  Drug concentration, time course: 0
[2]; Liver, 21h
  Drug concentration, time course: 0
[2]; Liver, 24h
  Drug concentration, time course: 0
[2]; Plasma, 0h
  Drug concentration, time course: 0
[2]; Plasma, 3h
  Drug concentration, time course: 500
[2]; Plasma, 6h
  Drug concentration, time course: 300
[2]; Plasma, 9h
  Drug concentration, time course: 50
[2]; Plasma, 12h
  Drug concentration, time course: 0
[2]; Plasma, 15h
  Drug concentration, time course: 0
[2]; Plasma, 18h
  Drug concentration, time course: 0
[2]; Plasma, 21h
  Drug concentration, time course: 0
[2]; Plasma, 24h
  Drug concentration, time course: 0

## CC1=C(C(=O)O)N2C(=O)[C@@H](NC(=O)[C@H](N)c3ccccc3)[C@H]2SC1 [Cephalexin, cephalexin]
[1]; [3]
  Association with AKI, Adjusted (95% CI): 1.52 (1.31–2.16)
[1]; [4]
  Association with AKI, Adjusted (95% CI): 1.82 (1.31–2.25)
[1]
  Association with AKI compared to control drug metformin, in words: increased rate of AKI; also recorded: higher risk for AKI
  Events During the 90 days (AKI): 50
  Total endpoint (AKI events): 333
  Events at secondary end (AKI): 283
  Total Percent (incidence rate of AKI at the end of the study): 6.71%
[2]; Kidney, 0h
  Drug concentration, time course: 0
[2]; Kidney, 3h
  Drug concentration, time course: 8130
[2]; Kidney, 6h
  Drug concentration, time course: 5630
[2]; Kidney, 9h
  Drug concentration, time course: 2390
[2]; Kidney, 12h
  Drug concentration, time course: 450
[2]; Kidney, 15h
  Drug concentration, time course: 30
[2]; Kidney, 18h
  Drug concentration, time course: 0
[2]; Kidney, 21h
  Drug concentration, time course: 0
[2]; Kidney, 24h
  Drug concentration, time course: 0
[2]; Liver, 0h
  Drug concentration, time course: 0
[2]; Liver, 6h
  Drug concentration, time course: 7460
[2]; Liver, 9h
  Drug concentration, time course: 4550
[2]; Liver, 12h
  Drug concentration, time course: 1650
[2]; Liver, 15h
  Drug concentration, time course: 340
[2]; Liver, 18h
  Drug concentration, time course: 80
[2]; Liver, 21h
  Drug concentration, time course: 0
[2]; Liver, 24h
  Drug concentration, time course: 0
[2]; Plasma, 0h
  Drug concentration, time course: 0
[2]; Plasma, 3h
  Drug concentration, time course: 360
[2]; Plasma, 6h
  Drug concentration, time course: 70
[2]; Plasma, 9h
  Drug concentration, time course: 30
[2]; Plasma, 12h
  Drug concentration, time course: 0
[2]; Plasma, 15h
  Drug concentration, time course: 0
[2]; Plasma, 18h
  Drug concentration, time course: 0
[2]; Plasma, 21h
  Drug concentration, time course: 0
[2]; Plasma, 24h
  Drug concentration, time course: 0

## CCOc1ccc(Cc2cc([C@@H]3O[C@H](CO)[C@@H](O)[C@H](O)[C@H]3O)ccc2Cl)cc1 [Dapagliflozin, dapagliflozin]
[1]; [3]
  Association with AKI, Unadjusted (95% CI): 0.94 (0.71–1.25)
  Association with AKI, Adjusted (95% CI): 0.84 (0.72–1.32)
[1]; [4]
  Association with AKI, Unadjusted (95% CI): 0.81 (0.63–1.33)
  Association with AKI, Adjusted (95% CI): 0.93 (0.58–1.24)
[1]
  Events During the 90 days (AKI): 73
  Total endpoint (AKI events): 298
  Events at secondary end (AKI): 225
  Total Percent (incidence rate of AKI at the end of the study): 6%
[1]; listed as dapagliflozin
  Total Percent (incidence rate of AKI at the end of the study): 6.0%
In vivo
  Tmax: 1 h
In vivo; 3 mg/kg
  Tmax: 1 h
In vivo; 3 mg/kg, t1/2
  half-life: 2.8 h

## CN(C)C(=N)N=C(N)N [Metformin, metformin]
[1]; [3]
  Association with AKI, Unadjusted (95% CI): 1
  Association with AKI, Adjusted (95% CI): 1
[1]; [4]
  Association with AKI, Unadjusted (95% CI): 1.0 (Reference)
  Association with AKI, Adjusted (95% CI): 1.0 (Reference)
[1]
  Events During the 90 days (AKI): 69
  Total endpoint (AKI events): 330
  Events at secondary end (AKI): 261
  Total Percent (incidence rate of AKI at the end of the study): 6.64%
In vivo
  Tmax: 0.5 h
In vivo; 3 mg/kg
  Tmax: 0.5 h

## insulin
[1]; [3]
  Association with AKI, Unadjusted (95% CI): 2.26 (1.95–2.64)
  Association with AKI, Adjusted (95% CI): 2.36 (1.81–2.87)
[1]; [4]
  Association with AKI, Unadjusted (95% CI): 2.42 (1.25–2.61)
  Association with AKI, Adjusted (95% CI): 2.73 (2.28–2.90)
[1]
  Association with AKI compared to control drug metformin, in words: increased rate of AKI; also recorded: higher risk for AKI
  Total endpoint (AKI events): 348
  Events at secondary end (AKI): 290
[2]; Kidney
  Cmax: 6574 ng/mL
  Tmax: 1 h
  AUC: 26,742 ng/mL
[2]; Liver
  Cmax: 6087 ng/mL
  Tmax: 1 h
  AUC: 19,851 ng/mL
[2]; Plasma
  Cmax: 879 ng/mL
  Tmax: 1 h
  AUC: 2985 ng/mL
[2]
  Tmax determined from the drug concentration in kidney and plasma (and liver): 1 h
[2]; Kidney, 0h
  Drug concentration, time course: 0
[2]; Kidney, 3h
  Drug concentration, time course: 14,200
[2]; Kidney, 6h
  Drug concentration, time course: 10,400
[2]; Kidney, 9h
  Drug concentration, time course: 6400
[2]; Kidney, 12h
  Drug concentration, time course: 3700
[2]; Kidney, 15h
  Drug concentration, time course: 500
[2]; Kidney, 18h
  Drug concentration, time course: 0
[2]; Kidney, 21h
  Drug concentration, time course: 0
[2]; Kidney, 24h
  Drug concentration, time course: 0
[2]; Liver, 0h
  Drug concentration, time course: 0
[2]; Liver, 3h
  Drug concentration, time course: 9400
[2]; Liver, 6h
  Drug concentration, time course: 5050
[2]; Liver, 9h
  Drug concentration, time course: 2380
[2]; Liver, 12h
  Drug concentration, time course: 370
[2]; Liver, 15h
  Drug concentration, time course: 0
[2]; Liver, 18h
  Drug concentration, time course: 0
[2]; Liver, 21h
  Drug concentration, time course: 0
[2]; Liver, 24h
  Drug concentration, time course: 0
[2]; Plasma, 0h
  Drug concentration, time course: 0
[2]; Plasma, 3h
  Drug concentration, time course: 640
[2]; Plasma, 6h
  Drug concentration, time course: 450
[2]; Plasma, 9h
  Drug concentration, time course: 310
[2]; Plasma, 12h
  Drug concentration, time course: 50
[2]; Plasma, 15h
  Drug concentration, time course: 0
[2]; Plasma, 18h
  Drug concentration, time course: 0
[2]; Plasma, 21h
  Drug concentration, time course: 0
[2]; Plasma, 24h
  Drug concentration, time course: 0
